The values below come from patent US20230097253A1, “NOVEL QUINAZOLINE COMPOUND AS THERAPEUTIC AGENT FOR METABOLIC DISORDERS” (BIOWAY., INC, priority 2020, published 2023).

Test [1] has as its system steatosis-induced Huh7 cells. Kind of test: Quantitative analysis of mRNA of lipogenesis-related factors (qRT-PCR). To be noted: 250 μM PA, 0.5 μM, 24 hours, compared to the control group, FIG. 9-B. It counts as cell-based. As to the method: To induce steatosis in Huh-7 cells in each well except for control cells, the Huh-7 cells were treated with PA bound to 2% BSA at a concentration of 250 μM except for the control, and the control cells were pretreated with 2% BSA without FA.
The cells in each well were treated with the compound of Chemical Formula 2 according to the present invention 0.5 μM and then cultured for 24 hours. The control cells and PA treated cells were treated with DMSO. All media were aspirated and the cells were gently washed 3 times with cold PBS.
(§1) Additionally, the total RNA was extracted using the RNeasy RNA isolation kit (Qiagen, Hilden, Germany).
(§2) Additionally, 10 μL of […] per mL of a cell lysis solution was additionally prepared.
(§3) Additionally, the cells were washed twice with cold PBS and 350 μL of RNA lysis buffer was added thereto.
(§4) Additionally, 70% EtOH was added to the lysate in an equal volume, mixed by pipetting, transferred to a spin column, and centrifuged at 8,000×g for 15 seconds.
Additionally, the flow-through solution was removed and 700 μL of a wash solution was added to the spin column, centrifuged at 8,000×g, and the flow-through solution was removed. […]
Additionally, RNA concentration was measured at OD 260 nm using the Nanophotometer N60 (Implen, Munich, Germany) […]
Background: Real-time PCR tracks product formation cycle by cycle.

Test [2] relates to Huh7 cells induced with inflammatory response. The experiment in a line: Gene expression in liver cells induced with inflammatory response (qRT-PCR). To be noted: Huh7 cells pretreated with IL-1β; 0.5, 2.5, 10 μM; FIG. 11, FIG. 12. Type of test: cell-based. The protocol: After culturing the Huh-7 cells to grow to a confluency of 80-90% in a 6 well plate, except for the control, the cells were pretreated with IL-1β and then treated with BW-3290, which is the compound of the present invention, diluted in the culture medium to concentrations of 0.5 μM, 2.5 μM, and 10 μM, so as to induce an inflammatory response.
as §1, §2, §3, §4
Additionally, the flow-through solution was removed and 700 μL of a wash solution was added to the spin column, centrifuged at 8,000×g, and the flow-through solution was removed.
Additionally, 500 μL of the wash buffer containing EtOH was added to the spin column and centrifuged at 8,000×g for 2 minutes (repeated 2 times)
Additionally, the flow-through solution was discarded and centrifuged once more to completely dry the spin column membrane.
Additionally, the spin column was placed into a new Eppendorf tube and 50 μL of RNase-free water was added directly to the spin column membrane and centrifuged at 8,000×g for 1 minute to dissolve and isolate the RNA.
Additionally, RNA concentration was measured at OD 260 nm using the Nanophotometer N60 (Implen, Munich, Germany)
Additionally, 1 μg of total RNA was reverse transcribed in the first strand synthesis buffer containing oligo (dT) primer (6 μg/mL), random primer (3 μg/mL), 50 U of reverse transcriptase, 4 mM dNTP, […], 5 mM magnesium chloride (MgCl2), and 40 U of RNase inhibitor.
Additionally, cDNA was synthesized using a polymerase chain reaction (PCR) device which was set to undergo denaturation at 95° C. for 5 minutes, cDNA synthesis at 42° C. for 50 minutes, and denaturation at 95° C. for 5 minutes. […]

In the next test the test system is 3T3-L1 cells. Kind of test: Inhibition of fat globule formation in adipocytes by Oil-Red-O staining. It counts as cell-based, mouse. To be noted: 3T3-L1 adipocytes, 0.5, 2.5, 10 and 20 μM. As to the method:
In order to confirm the effect of the compound on reducing fat accumulation on adipocytes, 3TL-L1 mouse fat progenitor cells (American Type Culture Collection) were cultured in an incubator set at 37° C. with 95% humidity and 5% CO2.
Additionally, after sufficiently proliferating 3T3-L1 mouse adipocytes using a proliferation medium (Dulbecco's modified Eagle's medium (DMEM) supplemented with 10% bovine serum (BS), 100 U/mL of penicillin, and 100 μg/mL of streptomycin), the cells were treated with a differentiation medium (DMEM containing 10% FBS, 0.5 mM 3-isobutyl-1-methylxanthine, 1 […], and 5 μg/mL insulin) for 2 days.
Thereafter, the cells were treated with an induction medium (DMEM containing 10% FBS and 5 μg/mL insulin) for 2 days, the maintenance medium (DMEM containing 10% FBS) was replaced daily to maintain the differentiated adipocytes until the end of the experiment.
According to an embodiment of the present invention, in order to confirm the ability of the compound of Formula 2 to inhibit fat globule formation, the 3T3-L1 cells (which are fat progenitor cells) were induced to be differentiated into adipocytes, and then stained through Oil-Red-O staining. […]

Turning to `CC(C)C(Nc1ncnc2nc[nH]c12)c1nc2cccc(Cl)c2c(=O)n1-c1ccccc1` (stereo not shown) [BW-3290, 2-(1-((7H-purin-6-yl)amino)-2-methylpropyl)-5-chloro-3-phenylquinazolin-4(3H)-one], in test [1], the “gene expression (mRNA) of FAS” value is “reduced” and the “gene expression (mRNA) of SREBP-1c” value is listed as “reduced”. Besides, in test [2], the “gene expression level of IL-6” value is “decreased in a concentration-dependent manner”, the “gene expression level of IL-8” value is on record as “decreased in a concentration-dependent manner” and the “gene expression level of TNF-α” value is “decreased in a concentration-dependent manner”. In the test with 3T3-L1 cells (concentration-dependent, FIG. 5), the “fat globule staining (Oil-Red-O) compared to differentiation” value is on record as “lower level of fat globule staining compared to differentiation”. In the test with 3T3-L1 cells (FIG. 6), the “amount of stained fat globules” value is listed as “appeared less in a drug concentration-dependent manner”.
